Assay results as given in PMC4506529 (Chemmedchem, 2014).

Legend:
[1] = target: human C-terminal DNMT3A (a.a. 623-908) (Homo sapiens, UniProt Q9Y6K1); assay: DNMT3A restriction-based fluorescence enzyme inhibition assay; format: biochemical; conditions: for inhibition at 20 µM / inhibition at 10 µM / inhibition at 32 µM: read-out: Inhibition [%] of DNMT3A catalytic activity; for Inhibition [%] of DNMT3A catalytic activity: mean±SEM where given, otherwise single determination
[2] = system: luciferase reporter under control of methylated CMV promoter in KG-1 cells; assay: CMV-luc reexpression in KG-1 cells; format: cell-based, human; conditions: 24 h; for Fold reactivation of luciferase (CMV-luc): vs untreated cells, mean±SEM
DNMT1 = conditions: compared with SGI-1027; cited from earlier work
hDNMT1 = hDNMT1 (Homo sapiens, UniProt P26358); assay: DNMT1 [methyl-3H]SAM FlashPlate assay; format: biochemical
[3] = target: T1, histone lysine methyltransferases G9a (Homo sapiens, UniProt Q96KQ7); assay: G9A inhibition assay; format: biochemical
T1 sequence (Q96KQ7 1-1210): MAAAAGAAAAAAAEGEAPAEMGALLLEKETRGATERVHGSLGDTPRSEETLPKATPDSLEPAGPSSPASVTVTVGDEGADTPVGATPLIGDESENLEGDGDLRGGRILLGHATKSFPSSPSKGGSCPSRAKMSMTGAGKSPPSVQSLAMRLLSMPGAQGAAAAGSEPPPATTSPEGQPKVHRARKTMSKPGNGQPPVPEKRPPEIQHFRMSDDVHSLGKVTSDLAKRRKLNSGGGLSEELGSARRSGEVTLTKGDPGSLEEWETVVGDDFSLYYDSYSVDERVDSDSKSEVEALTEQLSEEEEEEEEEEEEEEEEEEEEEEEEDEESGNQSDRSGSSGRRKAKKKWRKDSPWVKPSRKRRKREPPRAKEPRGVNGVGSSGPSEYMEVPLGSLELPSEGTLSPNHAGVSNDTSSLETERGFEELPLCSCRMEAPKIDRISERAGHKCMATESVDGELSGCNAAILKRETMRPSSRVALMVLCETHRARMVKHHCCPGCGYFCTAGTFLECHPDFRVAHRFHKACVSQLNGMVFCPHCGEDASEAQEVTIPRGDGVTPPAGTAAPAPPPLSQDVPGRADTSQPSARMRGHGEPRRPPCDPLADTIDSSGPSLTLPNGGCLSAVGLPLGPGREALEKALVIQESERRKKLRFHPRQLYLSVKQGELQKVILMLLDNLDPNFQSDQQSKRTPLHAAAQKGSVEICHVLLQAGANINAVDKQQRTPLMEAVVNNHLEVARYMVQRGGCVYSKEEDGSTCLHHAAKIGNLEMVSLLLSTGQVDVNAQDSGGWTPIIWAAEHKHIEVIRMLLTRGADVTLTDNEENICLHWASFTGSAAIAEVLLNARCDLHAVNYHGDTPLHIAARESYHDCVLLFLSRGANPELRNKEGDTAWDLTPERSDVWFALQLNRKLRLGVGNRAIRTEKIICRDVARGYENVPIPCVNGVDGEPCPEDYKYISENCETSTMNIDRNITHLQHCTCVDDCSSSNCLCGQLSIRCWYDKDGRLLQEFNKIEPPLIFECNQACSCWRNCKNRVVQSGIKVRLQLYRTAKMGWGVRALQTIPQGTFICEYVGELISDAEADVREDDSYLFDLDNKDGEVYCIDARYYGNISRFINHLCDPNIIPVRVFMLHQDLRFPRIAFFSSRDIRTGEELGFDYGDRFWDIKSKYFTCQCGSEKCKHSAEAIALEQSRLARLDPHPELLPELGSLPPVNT

Chain of human C-terminal DNMT3A (a.a. 623-908) (Q9Y6K1 627-912): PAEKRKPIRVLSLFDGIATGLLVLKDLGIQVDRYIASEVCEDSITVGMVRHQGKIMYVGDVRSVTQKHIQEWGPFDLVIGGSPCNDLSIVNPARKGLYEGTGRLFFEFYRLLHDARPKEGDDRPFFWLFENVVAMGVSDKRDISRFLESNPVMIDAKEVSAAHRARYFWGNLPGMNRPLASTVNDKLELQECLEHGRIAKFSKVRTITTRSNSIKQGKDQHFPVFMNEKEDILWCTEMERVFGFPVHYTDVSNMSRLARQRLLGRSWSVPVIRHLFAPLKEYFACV
Chain of hDNMT1 (P26358 whole entry): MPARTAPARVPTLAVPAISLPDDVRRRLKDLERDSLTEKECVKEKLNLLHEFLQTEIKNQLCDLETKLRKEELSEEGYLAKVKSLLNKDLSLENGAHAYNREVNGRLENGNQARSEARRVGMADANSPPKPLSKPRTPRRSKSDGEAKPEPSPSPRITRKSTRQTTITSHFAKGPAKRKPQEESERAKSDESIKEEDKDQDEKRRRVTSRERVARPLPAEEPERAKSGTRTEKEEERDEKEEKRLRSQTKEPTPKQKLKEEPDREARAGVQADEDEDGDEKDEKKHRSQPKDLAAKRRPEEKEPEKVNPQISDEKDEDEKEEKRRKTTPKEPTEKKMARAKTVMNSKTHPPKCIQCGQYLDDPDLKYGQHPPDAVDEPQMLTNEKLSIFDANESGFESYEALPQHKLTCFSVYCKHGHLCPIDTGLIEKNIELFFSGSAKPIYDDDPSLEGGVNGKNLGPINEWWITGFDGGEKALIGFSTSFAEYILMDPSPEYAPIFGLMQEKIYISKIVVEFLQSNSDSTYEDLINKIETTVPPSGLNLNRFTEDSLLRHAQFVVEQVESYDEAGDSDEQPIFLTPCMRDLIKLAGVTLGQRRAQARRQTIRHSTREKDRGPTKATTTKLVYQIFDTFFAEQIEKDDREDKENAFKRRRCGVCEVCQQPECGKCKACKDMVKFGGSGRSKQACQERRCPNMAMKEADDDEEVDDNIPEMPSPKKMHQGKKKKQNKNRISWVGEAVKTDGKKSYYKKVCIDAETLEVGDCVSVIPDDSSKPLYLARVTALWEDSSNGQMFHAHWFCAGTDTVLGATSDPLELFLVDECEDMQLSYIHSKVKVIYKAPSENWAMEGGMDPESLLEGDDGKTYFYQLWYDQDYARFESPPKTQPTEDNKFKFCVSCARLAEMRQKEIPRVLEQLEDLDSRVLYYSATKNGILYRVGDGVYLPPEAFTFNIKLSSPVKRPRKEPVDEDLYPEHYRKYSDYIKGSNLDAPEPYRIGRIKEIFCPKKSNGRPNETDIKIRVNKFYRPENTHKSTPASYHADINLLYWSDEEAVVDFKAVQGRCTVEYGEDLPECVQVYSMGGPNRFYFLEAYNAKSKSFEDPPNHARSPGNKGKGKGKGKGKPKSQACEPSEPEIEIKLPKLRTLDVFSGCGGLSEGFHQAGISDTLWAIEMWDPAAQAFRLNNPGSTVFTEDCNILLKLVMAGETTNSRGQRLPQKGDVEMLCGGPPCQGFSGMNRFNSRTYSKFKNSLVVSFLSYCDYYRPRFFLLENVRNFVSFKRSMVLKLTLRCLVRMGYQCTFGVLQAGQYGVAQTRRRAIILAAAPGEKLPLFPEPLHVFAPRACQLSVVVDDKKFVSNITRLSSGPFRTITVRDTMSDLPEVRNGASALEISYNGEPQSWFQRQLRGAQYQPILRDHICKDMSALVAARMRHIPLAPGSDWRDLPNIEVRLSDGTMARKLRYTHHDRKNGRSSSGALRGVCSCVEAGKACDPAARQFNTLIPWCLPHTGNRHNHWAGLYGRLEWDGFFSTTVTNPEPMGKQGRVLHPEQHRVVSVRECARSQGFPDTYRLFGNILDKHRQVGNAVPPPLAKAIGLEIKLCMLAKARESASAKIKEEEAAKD

| Compound | inhibition at 10 µM [1] | inhibition at 32 µM [1] | further results |
| --- | --- | --- | --- |
| Cc1cc(Nc2ccc(NC(=O)c3ccc([N+](=O)[O-])cc3)cc2)nc(N)n1 [Compound 8, N-[4-(2-Amino-6-methylpyrimidin-4-ylamino)phenyl]-4-nitrobenzamide] |  |  | inhibition at 20 µM [1]: 1% |
| Cc1cc(Nc2ccc(NC(=O)c3ccc(N)cc3)cc2)nc(N)n1 [Compound 9, N-[4-(2-Amino-6-methylpyrimidin-4-ylamino)phenyl]-4-aminobenzamide] |  |  | inhibition at 20 µM [1]: 0% |
| Cc1cc(Nc2ccc(NC(=O)c3ccc(Nc4ccncc4)cc3)cc2)nc(N)n1 [Compound 10, N-[4-(2-Amino-6-methylpyrimidin-4-ylamino)phenyl]-4-(pyridin-4-ylamino)benzamide] | 32% | 91 ± 4% | EC50 [1]: 13 µM |
| Cc1cc(Nc2ccc(NC(=O)c3ccc(Nc4ncccn4)cc3)cc2)nc(N)n1 [Compound 11, N-[4-(2-Amino-6-methylpyrimidin-4-ylamino)-phenyl]-4-(pyrimidin-2-ylamino)benzamide] | 17% | 65 ± 3% |  |
| COc1nc(Nc2ccc(C(=O)Nc3ccc(Nc4cc(C)nc(N)n4)cc3)cc2)nc(OC)n1 [Compound 13, N-[4-(2-Amino-6-methylpyrimidin-4-ylamino)phenyl]-4-(4,6-dimethoxy-1,3,5-triazin-2-ylamino)benzamide] | 36% | 35% |  |
| Cc1cc(Nc2ccc(NC(=O)c3ccc(Nc4ncnc5ccccc45)cc3)cc2)nc(N)n1 [Compound 14, N-[4-(2-Amino-6-methylpyrimidin-4-ylamino)phenyl]-4-(quinazolin-4-ylamino)benzamide] | 25% | 19% |  |
| Cc1cc(Nc2ccc(NC(=O)c3ccc(Nc4ncnc5cc(F)ccc45)cc3)cc2)nc(N)n1 [Compound 15, N-[4-(2-Amino-6-methylpyrimidin-4-ylamino)phenyl]-4-(7-fluoroquinazolin-4-ylamino)benzamide] | 19% | 6% |  |
| Cc1cc(Nc2ccc(NC(=O)c3ccc(Nc4cc(-c5ccccc5)nc5ccccc45)cc3)cc2)nc(N)n1 [Compound 16, N-[4-(2-Amino-6-methylpyrimidin-4-ylamino)phenyl]-4-(2-phenylquinolin-4-ylamino)benzamide] | 81 ± 5% | 55 ± 10% | Fold reactivation of luciferase (CMV-luc) ([2]; 0.1 μM): 1.0±0.1 fold; Fold reactivation of luciferase (CMV-luc) ([2]; 1 μM): 1.3±0.1 fold; Fold reactivation of luciferase (CMV-luc) ([2]; 3.2 μM): 5.5±1.3 fold; Fold reactivation of luciferase (CMV-luc) ([2]; 5 μM): 6.0±2.0 fold; Fold reactivation of luciferase (CMV-luc) ([2]; 10 μM): 6.1±2.7 fold; EC50 [1]: 1.6 µM |
| Cc1cc(Nc2ccc(NC(=O)c3ccc(Nc4ncnc5nc[nH]c45)cc3)cc2)nc(N)n1 [Compound 17, N-[4-(2-Amino-6-methylpyrimidin-4-ylamino)phenyl]-4-(7H-purin-6-ylamino)benzamide] | 8% |  | inhibition at 20 µM [1]: 3% |
| CNc1ccc(C(=O)Nc2ccc(Nc3cc(C)nc(N)n3)cc2)cc1 [Compound 23, N-[4-(2-Amino-6-methylpyrimidin-4-ylamino)phenyl]-4-(methylamino)benzamide] | 0% |  | inhibition at 20 µM [1]: 0% |
| Cc1cc(Nc2ccc(C(=O)Nc3ccc(Nc4ccnc5ccccc45)cc3)cc2)nc(N)n1 [Compound 30, N-[4-(Quinolin-4-ylamino)phenyl]-4-(2-amino-6-methylpyrimidin-4-ylamino)benzamide] | 56 ± 11% | 47 ± 1% | DNMT1 degradation (in words) (DNMT1): lower efficiency on DNMT1 degradation than SGI-1027 |
| O=C(Nc1ccc(Nc2ccnc3ccccc23)cc1)c1ccc(Nc2ccncc2)cc1 [Compound 31, N-[4-(Quinolin-4-ylamino)phenyl]-4-(pyridin-4-ylamino)benzamide] | 73 ± 3% | 75 ± 8% | Fold reactivation of luciferase (CMV-luc) ([2]; 0.1 μM): 1.1±0.1 fold; Fold reactivation of luciferase (CMV-luc) ([2]; 0.32 μM): 1.3±0.2 fold; Fold reactivation of luciferase (CMV-luc) ([2]; 0.5 μM): 1.6±0.3 fold; Fold reactivation of luciferase (CMV-luc) ([2]; 1 μM): 2.0±0.2 fold; Fold reactivation of luciferase (CMV-luc) ([2]; 3.2 μM): 3.9±0.3 fold; Fold reactivation of luciferase (CMV-luc) ([2]; 5 μM): 3.9±0.1 fold; Fold reactivation of luciferase (CMV-luc) ([2]; 10 μM): 3.2±0.5 fold; concentration from which luciferase expression was reactivated [2]: ≥ 1 µM; EC50 (hDNMT1): 15 ± 3 µM; EC50 [1]: 0.9 µM; efficacy of hDNMT3A inhibition ([1]; maximal efficacy of the dose–response curve): 90%; IC50 [3]: 28 ± 4 µM |
| Nc1cc(Nc2ccc(C(=O)Nc3ccc(Nc4ccnc5ccccc45)cc3)cc2)nc(N)n1 [Compound 32, N-[4-(Quinolin-4-ylamino)phenyl]-4-(2,6-diaminopyrimidin-4-ylamino)benzamide] | 53 ± 8% | 53 ± 13% | plateau of DNMT3A inhibition ([1]; plateau between 32 and 1 μM, no dose–response curve (data not shown)): 50% |
| O=C(Nc1ccc(Nc2ccnc3ccccc23)cc1)c1ccc(Nc2cc(-c3ccccc3)nc3ccccc23)cc1 [Compound 33, N-[4-(Quinolin-4-ylamino)phenyl]-4-(2-phenylquinolin-4-ylamino)benzamide] | 29% | 46% |  |
| O=C(Nc1ccc(Nc2ccncc2)cc1)c1ccc(Nc2ccncc2)cc1 [Compound 36, N-[4-(Pyridin-4-ylamino)phenyl]-4-(pyridin-4-ylamino)benzamide] | 18% | 54 ± 5% |  |
| O=C(Nc1ccc(Nc2ccnc3ccccc23)cc1)c1ccc(Nc2ccnc3ccccc23)cc1 [Compound 37, N-[4-(Quinolin-4-ylamino)phenyl]-4-(quinolin-4-ylamino)benzamide] | 39% | 29% |  |
| O=C(Nc1ccc(Nc2c3ccccc3nc3ccccc23)cc1)c1ccc(Nc2c3ccccc3nc3ccccc23)cc1 [Compound 38, N-[4-(Acridin-9-ylamino)phenyl]-4-(acridin-9-ylamino)benzamide] | 48 ± 8% | 62 ± 22% |  |
| Cc1cc(Nc2ccc(NC(=O)c3ccc(Nc4ccnc5ccccc45)cc3)cc2)nc(N)n1 [SGI-1027, N-(4-(2-amino-6-methylpyrimidin-4-ylamino)phenyl)-4-(quinolin-4-ylamino)benzamide, reference compound] | 74 ± 5% | 76 ± 5% |  |
| N-[4-(2-Amino-6-methylpyrimidin-4-ylamino)-phenyl]-4-(pyridin-4-ylmethylamino)benzamide [Compound 25] |  |  | Inhibition [%] of DNMT3A catalytic activity ([1]; 10 μM compound): 0%; Inhibition [%] of DNMT3A catalytic activity ([1]; 32 μM compound): 4% |
| N-[4-(2-Amino-6-methylpyrimidin-4-ylamino)phenyl]-4-(pyridin-3-ylmethylamino)benzamide [Compound 24] |  |  | Inhibition [%] of DNMT3A catalytic activity ([1]; 10 μM compound): 0% |
